Data reported in publication PMC2896951, “The proline-rich peptide Bac7(1-35) reduces mortality from Salmonella typhimurium in a mouse model of infection” (BMC Microbiology, 2010).
Where a SMILES comes first, the peptide text is derived from it. Where no end group is shown, it is not given here.

Experiments:
[1] = test system: Salmonella enterica serovar Typhimurium ATCC 14028; assay: Killing kinetics assay (bactericidal activity) in the presence of biological fluids; assay type: cell-based; conditions: for reduction of the number of CFU: 10 μM peptide, 1 h incubation, 37°C
Procedure: Murine plasma obtained using 2% (v/v) Na-citrate as an anticoagulant, and serum were prepared and stored at -20°C until use. The bactericidal activity of Bac7(1-35) against Salmonella enterica serovar Typhimurium ATCC 14028 was determined by a killing kinetics assay. Mid-logarithmic phase S. enterica cultures were diluted in murine serum or plasma (66% v/v final concentration) or BSA (40 mg/mL) (Sigma) to give approximately 1 × 10^6 cells/ml, and incubated with 10 μM Bac7(1-35) in a shaking water bath at 37°C for different times. Samples were withdrawn, diluted and plated to allow colony counts.

[2] = 37°C, several days of incubation
Procedure: (§1) At different times, aliquots of samples were diluted 1:5 in sample buffer (12% SDS, 6% dithiothreitol, 40% glycerol, 0.05% bromophenol blue, 150 mM Tris-HCl, pH 7), incubated for 15 min at 60°C and analyzed on a 16% Tricine/SDS gel. Proteins were then blotted onto nitrocellulose membrane (Whatman), and incubated overnight with shaking at 4°C in 40 mM Tris-HCl, pH 7.5, 5% non-fat milk, 0.05% Tween 20, 200 mM NaCl (blocking solution). Samples were incubated for 90 min with 1:1000 rabbit anti-Bac7(1-35) IgG, diluted in blocking solution, followed by a HRP-conjugated anti-rabbit IgG (Sigma-Aldrich). The ECL detection system (GE Healthcare) was used to develop the Western blots.

in vitro = assay: in vitro
Procedure: Bac7(1-35) peptide (50 μg) was incubated in 250 μL of PBS containing 25% (v/v) of murine serum or plasma at 37°C. At different time intervals (0, 1, 2, 4, 8 and 24 h), aliquots of 25 μL (corresponding to 5 μg of peptide) were added to 65 μL of cold 0.5% (v/v) TFA in H2O, kept on ice for 5 min and than centrifuged at 10.000 × g for 5 min. The LC-MS analysis of supernatants were carried out as described, using a standard curve to calculate the peptide concentration.

[3] = test system: S. typhimurium ATCC 14028 infection in CBA/Ca mice; assay: Mouse model of typhoid fever, survival; assay type: in vivo
Procedure: Inocula containing 10^2 CFU/mouse of S. enterica ATCC 14028, expected to result in 90-100% mortality in 4-6 days for Balb/c and 10-18 days for CBA/Ca, were prepared by diluting log-phase bacterial cultures in sterile PBS. Ten mice were infected intraperitoneally and monitored for survival over a 60-day period after infection. Test peptide (30 mg/kg) was injected via i.p. after bacterial challenge. The choice of dose was based on preliminary data obtained with lower doses (data not shown) and on results reported in the literature for structurally similar peptides. Control mice were given 0.2 ml of PBS. […] The analysis of survival curves was conducted using the Kaplan-Meyer method and successive statistical evaluation by the Logrank test. Significance of percentage differences among groups was assessed by using the Fisher exact test. Values of p < 0.05 were considered statistically significant.

[4] = test system: S. enterica ATCC 14028 in liver and spleen of CBA/Ca mice; assay: Viable colony counts in murine liver and spleen homogenates; assay type: in vivo, mouse; conditions: 30 mg/kg i.p., 3 days post-inoculation
Procedure: Three days after bacterial infection, a group of 3 untreated and 3 peptide-treated mice were killed by cervical dislocation, and liver and spleen were removed. The organs were weighed, homogenized separately and dissolved in PBS. Suitable dilutions of 50 μL of the homogenate in PBS were plated in duplicate on Mueller-Hinton agar (Difco). The plates were then incubated at 37°C overnight to allow colony counts. Results are expressed as number of CFU/g of organ. This assay was repeated two fold.

Balb/c and CBA/Ca mice = assay: In vivo toxicity after single i.p. injection; set-up: species or system mouse
Procedure: The in vivo toxicity of Bac7(1-35) was investigated by injecting mice via i.p. with increasing amounts of the peptide dissolved in apyrogen PBS (0.2 ml per mouse). The controls received the vehicle alone. Animal behavior and survival were monitored over a 14-day period.

[5] = 37°C, Western blot
Procedure: as §1

[6] = test system: E. coli infection; S. typhimurium disease; set-up: method as in 2 sources, one per row (each row's own in cited_ref): ref 8 = [8]; PMID 12222961; doi:10.1007/s00018-002-8493-8; Otvos L The short proline-rich antibacterial peptide family Cell Mol Life Sci 2002 59 7 1138 1150 10.1007/s00018-002-8493-8 12222961 PMC11337521 ||| ref 22 = [22]; PMID 2934362; doi:10.1093/jac/16.5.615; Easmon CS Blowers A Ciprofloxacin treatment of systemic salmonella infection in sensitive and resistance mice J Antimicrob Chemother 1985 16 5 615 619 10.1093/jac/16.5.615 2934362; conditions: Balb/c mice; cited from earlier work
Procedure: As a first step to evaluate the therapeutic potential of Bac7(1-35), its in vivo toxicity was determined in Balb/c and CBA/Ca mice after injection via i.p. of increasing single peptide doses. […] For ... || The potential of Bac7(1-35) to protect mice from a bacterial challenge was tested by a mouse model of Salmonella infection. Infected mice develop a systemic disease characterized by rapid bacterial multiplication in the liver and spleen that resembles typhoid fever caused by Salmonella serovar Typhi in humans.

[7] = Antimicrobial activity of the labelled peptide (data not shown); assay type: cell-based
healthy animals / mice = conditions: i.v.; cited from earlier work

With `CC[C@H](C)[C@H](NC(=O)[C@H](CCCNC(=N)N)NC(=O)[C@@H](N)CCCNC(=N)N)C(=O)N[C@@H](CCCNC(=N)N)C(=O)N1CCC[C@H]1C(=O)N[C@@H](CCCNC(=N)N)C(=O)N1CCC[C@H]1C(=O)N1CCC[C@H]1C(=O)N[C@@H](CCCNC(=N)N)C(=O)N[C@@H](CC(C)C)C(=O)N1CCC[C@H]1C(=O)N[C@@H](CCCNC(=N)N)C(=O)N1CCC[C@H]1C(=O)N[C@@H](CCCNC(=N)N)C(=O)N1CCC[C@H]1C(=O)N[C@@H](CCCNC(=N)N)C(=O)N1CCC[C@H]1C(=O)N[C@@H](CC(C)C)C(=O)N1CCC[C@H]1C(=O)N[C@@H](Cc1ccccc1)C(=O)N1CCC[C@H]1C(=O)N[C@@H](CCCNC(=N)N)C(=O)N1CCC[C@H]1C(=O)NCC(=O)N1CCC[C@H]1C(=O)N[C@@H](CCCNC(=N)N)C(=O)N1CCC[C@H]1C(=O)N[C@H](C(=O)N1CCC[C@H]1C(=O)N[C@@H](CCCNC(=N)N)C(=O)N1CCC[C@H]1C(=O)N[C@@H](CC(C)C)C(=O)N1CCC[C@H]1C(=O)N[C@@H](Cc1ccccc1)C(=O)N1CCC[C@H]1C(=O)O)[C@@H](C)CC` [Bac7(1-35)] (H-RRIRPRPPRLPRPRPRPLPFPRPGPRPIPRPLPFP-OH; N-terminus and C-terminus assumed) the “reduction of the number of CFU” value ([1]; in the absence of serum/plasma) was 2.5 log, the “reduction of the number of CFU” value ([1]; with 66% murine serum or plasma, approx. 1 × 10^6 cells/ml, three independent determinations in triplicate) was 0.5-1 log and the “bactericidal activity upon addition of BSA” value ([1]; 40 mg/mL BSA, data not shown) was “did not change”. For the same compound, the “peptide concentration giving a CFU reduction comparable to 10 μM in serum/plasma” value ([1]; without the presence of plasma/serum, 1 h) was 1 µM, the “peptide degradation in PBS alone” value [2] was “no peptide degradation was observed” and the “degradation process in plasma relative to serum” value (in vitro; 25% (v/v) murine plasma in PBS, 37°C, LC-MS) was “slower in plasma than in serum”. The “state of the peptide after 8 h” value (in vitro; 25% (v/v) murine serum in PBS, 37°C, 8 h incubation, LC-MS) was “almost completely degraded”, the metabolised at 1 h, 200 μg/mL (in vitro; mouse, 25% (v/v) murine serum in PBS) was 10% and the mean survival time ([3]; 30 mg/kg i.p. after i.p. challenge with 1 × 10^2 CFU/mouse, 60 days monitoring, control 10 days, p = 0.01) was 24.5 days. The “infected mice completely cured (survival)” value ([3]; 30 mg/kg i.p., 60 days, untreated 0%, p = 0.04) was 36%, the “fraction of animals with bacteria undetectable in both spleen and liver” value [4] was 1/3 and the “number of viable bacterial cells in liver and spleen homogenates” value ([4]; CBA/Ca mice) was “decreased significantly”. The “dose at which mice died” value (Balb/c and CBA/Ca mice; highest dose) was 150 mg/kg, the “dose with no apparent toxic effect” value (Balb/c and CBA/Ca mice; monitored over 14 days) was “up to 75 mg/kg” and the “degradation in plasma relative to serum (immunodetection)” value ([5]; 25% (v/v) murine plasma in PBS, up to 24 h) was “slower”. For the same compound, the “band corresponding to intact peptide (immunodetection)” value ([5]; 25% (v/v) murine serum in PBS, 24 h incubation, 120 μg in 200 μL) was “disappeared”.

For `O=C(O)c1cn(C2CC2)c2cc(N3CCNCC3)c(F)cc2c1=O` [ciprofloxacin], the “prevention of fatal S. typhimurium disease” value [6] is given as “failed to prevent”.

For “Bac7(1-35)-Alexa680: derivative of Bac7(1-35) fluorescently labelled with the dye Alexa680 via an added C-terminal cysteine (RRIRPRPPRLPRPRPRPLPFPRPGPRPIPRPLPFP-{C(Alexa Fluor 680 C2-maleimide)}; UniProt P19661 131-165, looked up, fragment)”, the “antimicrobial activity relative to the unlabelled peptide” value [7] was “comparable”.

In the case of “Drosocin: insect proline-rich AMP (GKPRPYSPRPTSHPRPIRV; ends and bridges not checked; UniProt P36193 22-40, looked up)”, the “dose at which completely devoid of toxicity” value (healthy animals / mice) is listed as 100 mg/kg.
